This note sets out measurements from US7057059B2, “Tumor-inhibiting platinum (II) oxalate complexes” (Faustus Forschungs CIE. Translational Cancer Research GmbH, priority 2002, dated 2006).

Data set [1] deals with Female, tumor-bearing B6D2F1 mouse. Kind of data set: In vivo efficacy study: survivors on day 14 after tumor transplantation. The conditions noted are these: for Survivors/total number: Qd×5, day 14 after tumor transplantation; for animals still alive on day 14: highest dosage level. The source says:
Female, tumor-bearing B6D2F1 mouse, day 14 after tumor transplantation.

The nature of data set [2]: MTD study on animals free of tumors. The conditions noted are these: in vivo.
In a further data set the test system is leukaemia L1210. Briefly: L1210 leukaemia in the mouse. It counts as in vivo. Conditions: for effectiveness (survival to the end of the experiment): 3 mg/kg and 6 mg/kg, 21 day study. The source says:
FIG. 4 is a bar graph of the results of the effectiveness of (4-methyl-trans-chxn)Pt(ox) in comparison to I-OHP in leukaemia L1210 in the mouse at various dosages over a 21 day study.

A further data set has as its system animals free of tumors. Briefly: MTD study on animals free of tumors. The conditions noted are these: on day 5, at MTD 10 mg/kg Qd×5.
In data set [3] the test system is CH1 (adenocarcinoma of the ovary). The data set is classed as cell-based. The conditions noted are these: cell line CH1, MTT, 96 h. As to the method:
(§1) The cytotoxicity of the compounds according to Examples 1 and 2 was tested by using the following cell lines 41M, CH1 and SW480. In this respect the following method was selected:
(§2) In this regard, adherent monolayer cultures of the following cell lines were used: 41M (adenocarcinoma of the ovary), CH1 (adenocarcinoma of the ovary), SW480 (adenocarcinoma of the colon; primary resistance to cisplatinum).
(§3) Culture conditions: The cells were kept in 75 cm^2 culture flasks at 37° C. and moist atmosphere (5% CO2). Minimal Essential Medium (MEM) was used as culture medium, with 2 mmol/l I-glutamine, 1 mmol/l sodium pyruvate, 50 IU/ml penicillin, 50 μg/ml streptomycin and 10% heat-inactivated foetal bovine serum.
(§4) Test execution: Cell suspensions were obtained from subconfluent cultures by treatment with trypsin and seeded in defined density in 96-well microculture plates. The initial density was selected such that for the complete test duration an exponential growth of the cultures was guaranteed. For the cell line 41M this was 4·10^4 cells/ml, for CH1 1.25·10^4 cells/ml and for SW480 1.5·10^4 cells/ml. The plates were incubated for 24 h under standard conditions to achieve cell establishment. Then the compounds to be tested were introduced in ten-staged concentration series in the culture medium (without addition of organic solvents or dissolving agents) into the plates and left for the complete test duration (96 h). Per experiment each concentration was tested on eight microcultures of the same cell line. At the end of the experiment the respective number of living cells in the microculture was determined spectrophotometrically (at 550 nm) using the MTT-dye reaction in relationship to the untreated control cultures. Equally, the number of living cells in microculture plates started in parallel was quantified at the start of the active substance exposition. […] The mean values were used for the evaluation.

In data set [4] the test system is 41M (adenocarcinoma of the ovary). It counts as cell-based. Conditions: cell line 41M, MTT, 96 h. As to the method: as §1, §2, §3, §4
Data set [5] relates to SW480 (adenocarcinoma of the colon; primary resistance to cisplatinum). The data set is classed as cell-based. Conditions: cell line SW480, MTT, 96 h. As to the method: as §1, §2, §3, §4

With `O=C1[O][Pt]2([NH]C3CCCC[C@H]3[NH]2)[O]C1=O` (stereo partly shown) [Oxaliplatinum, oxaliplatinum], the Survivors/total number in data set [1] (dose 1.25 mg/kg) is on record as 5/6; in data set [1] (dose 2.50 mg/kg) it was 6/6; in data set [1] (dose 5.00 mg/kg) it was 0/6. In addition, the “animals still alive on day 14” value in data set [1] is recorded as “death of all animals”. Further, the MTD at 5 days in data set [2] was 5 mg/kg. In the data set on leukaemia L1210, the “effectiveness (survival to the end of the experiment)” value is “deaths already occurred”.

Consider `CCC1CCC2[NH][Pt]3([NH]C2C1)[O]C(=O)C(=O)[O]3` (stereo not drawn) [[(4-ethyl-trans-chxn)Pt(ox)], (SP-4-3)-(4-ethyl-trans-cyclohexane-1,2-diamine)oxalatoplatinum (II)], for which the Survivors/total number is on record as 5/6 in data set [1] (dose 1.34 mg/kg), 6/6 in data set [1] (dose 2.68 mg/kg) and 6/6 in data set [1] (dose 5.35 mg/kg). Besides, the “animals still alive on day 14” value in data set [1] is on record as 6/6. Further, the MTD at 5 days in data set [2] was found to be 10 mg/kg. In the data set with animals free of tumors, this compound registered a weight loss of 5%.

A word on the IC50: it is the concentration that gives 50% inhibition. Low readings indicate higher potency, high ones lower potency. By TGI is commonly meant the concentration at which net growth stops. In data set [3], `O=C(O)C(=O)O.[NH-]C1CCCCC1[NH-].[Pt+2]` (stereo not drawn) [[(trans-S,S-chxn)Pt(ox)]] gave a Gl50 of 1.14 µM, an IC50 of 1500 nM and a TGI of 4200 nM. In data set [4], this compound came in with a GL50 of 1.11 µM, an IC50 of 3200 nM and a TGI of 4400 nM. Besides, in data set [5], the Gl50 turned out to be 2.2 µM, inhibition was half-maximal at 4200 nM (IC50) and the TGI turned out to be 47800 nM.

Turning to `O=C(O)C(=O)O.[NH-][C@@H]1CCCC[C@H]1[NH-].[Pt+2]` [[(trans-chxn)Pt(ox)]], in data set [3], the Gl50 was 0.54 µM; the midpoint of inhibition, the IC50, lay at 700 nM; the TGI amounted to 2000 nM. Moreover, in data set [4], the GL50 came out at 0.99 µM, the half-inhibitory concentration (IC50) came out at 4200 nM and the TGI turned out to be 5000 nM. Besides, in data set [5], the Gl50 worked out at 0.8 µM, the IC50 is 1600 nM and the TGI is 21800 nM.

With “(SP-4-3)-(4-methyl-trans-cyclohexane-1,2-diamine)oxalatoplatinum (II) [[(4-methyl-trans-chxn)Pt(ox)]]”, the figures for the Survivors/total number in data set [1] (dose 1.30 mg/kg), in data set [1] (dose 2.60 mg/kg) and in data set [1] (dose 5.20 mg/kg) were 6/6, 5/6 and 4/6, respectively. Also, the “animals still alive on day 14” value in data set [1] was 4/6. Moreover, the Gl50 in data set [3] was 0.22 µM; in data set [5] it was 0.31 µM. Besides, the figures for the IC50 in data set [3], in data set [4] and in data set [5] were 340 nM, 2400 nM and 650 nM, respectively. In addition, the values for the TGI in data set [3], in data set [4] and in data set [5] were 930 nM, 4200 ± 2600 nM and 9000 nM, respectively. This compound also had a GL50 in data set [4] of 0.91 ± 0.16 µM. The same compound came in with a weight loss in the data set with animals free of tumors of 5%. Also, in the data set on leukaemia L1210, the “effectiveness (survival to the end of the experiment)” value is recorded as “all animals survived the experiment to the end”. Besides, the “tolerance at high dosage” value with leukaemia L1210 (24 mg/kg, in comparison to I-OHP) is “better tolerance”.
